Here are results for 3 molecules from patent EP0959065B1, “Pyrethroid compound and composition for controlling pest containing the same” (priority 1998, dated 1999).

Data set [1] concerns houseflies (Musca domestica). Nature of the data set: Mosquito coil fumigation test in glass chamber (knock-down and lethal activity). Format: in vivo. The arrangement: key to Knocking-down activity: Excellent: All the insects were knocked down or dead (the total in the two replications); Good: 1 to 2 insects were not knocked down or dead (ditto); Mediocre: 3 to 4 insects were not knocked down or dead (ditto); Bad: 5 or more insects were not knocked down or dead (ditto). The settings on record: two replications; for Knocking-down activity: 0.3 g coil burnt 30 seconds in 0.34 m^3 chamber, knocked-down counted at ten minutes, 10 adult houseflies; for Lethal activity: insects recovered at 25 minutes, dead and alive counted in 24 hours. An excerpt:
A base material for mosquito coil (obtained by stirring a 4:3:3 mixture of Tabu powder, Pyrethrum marc and wood powder, adding water thereto, thoroughly kneading the resulting mixture, and molding and drying the kneaded mixture) was uniformly impregnated with a solution of the present compound in acetone so that the material contains a predetermined amount of the compound. The resultant base material was air-dried to obtain a mosquito coil.
Ten adult houseflies (Musca domestica) (male/ female = 5/5) were released in a glass chamber (70cm cube, capacity: 0.34 m^3). 0.3 Gram of a mosquito coil containing the present compound prepared according to the procedure described above was set on a holder in the center of the bottom of the chamber, ignited at one end thereof, and taken out of the chamber after 30 seconds of combustion. The knocked-down houseflies were counted in ten minutes after the setting of the coil. In 25 minutes after the setting of the coil, the test insects were recovered into a cup for recovery and given water and diet. The dead and alive were counted in 24 hours. Two replications of the test were carried out. The same test procedure was repeated for 4-methyl-2,3,5,6-tetrafluorobenzyl (1R)-cis-3-(2,2-dichlorovinyl)-2,2-dimethylcyclopropanecarboxylate (hereinafter referred to as reference compound A) and for a mixture of 50% by weight of 4-methyl-2,3,5,6-tetrafluorobenzyl (1RS)-cis-3-(2,2-dichlorovinyl)-2,2-dimethylcyclopropanecarboxylate and 50% by weight of 4-methyl-2,3,5,6-tetrafluorobenzyl (1RS)-trans-3-(2,2-dichlorovinyl)-2,2-dimethylcyclopropanecarboxylate (this mixture is hereinafter referred to as reference compound B). […] In the table, the knocking-down activity and the lethal activity are indicated according to the following criterion: • Excellent: All the insects were knocked down or dead (the total in the two replications). • Good: 1 to 2 insects were not knocked down or dead (ditto). • Mediocre: 3 to 4 insects were not knocked down or dead (ditto). • Bad: 5 or more insects were not knocked down or dead (ditto).

Data set [2] is described as follows: Calculation of safety factor (rat LD50 / housefly LD50). The settings on record: Toxicity to rat (LD50 value) / Insecticidal activity against housefly (LD50 value). On the procedure: The safety factor was calculated from the insecticidal activity against housefly and the toxicity to rat according to the following equation. […] Safety factor = Toxicity to rat (LD50 value)] / [Insecticidal activity against housefly (LD50 value)] [formula]

The next data set deals with female adult houseflies. Briefly: Insecticidal activity against housefly, topical application of acetone dilutions on the nota. In kind it is in vivo. The note with it: Musca domestica, 0.5 µl acetone dilution per insect on the nota, mortality after 24 hours. On the procedure: The present compound was diluted with acetone to concentrations of 100, 50, 25, 12.5 and 6.25 ppm. Each of reference compounds A and B was also diluted with acetone to concentrations of 400, 200, 100, 50 and 25 ppm. Each of the dilutions thus prepared was applied on the nota of female adult houseflies in a volume of 0.5 µl per insect. The insects were given water and diet. After 24 hours, the dead and alive were counted for mortality. From the mortality, LD50 (mg/kg) value was determined.

A short description of data set [3]: Toxicity to rat, administration of corn oil dilutions. The settings on record: in vivo, male rats, dilution in corn oil, 10 ml/kg, mortality after 7 days. How it is done:
Each of the present compound and reference compounds A and B was diluted with corn oil to predetermined concentrations. Each of the dilutions thus prepared was administered to male rats in an amount of 10 ml/kg. The rats were given water and diet. After 7 days, the dead and alive were counted for mortality. From the mortality, LD50 (mg/kg) value was determined.

Consider “mixture of 50% by weight of 4-methyl-2,3,5,6-tetrafluorobenzyl (1RS)-cis-3-(2,2-dichlorovinyl)-2,2-dimethylcyclopropanecarboxylate and 50% by weight of 4-methyl-2,3,5,6-tetrafluorobenzyl (1RS)-trans-3-(2,2-dichlorovinyl)-2,2-dimethylcyclopropanecarboxylate [Reference compound B]”, for which, in data set [1] (concentration 0.5 %W/W), the Knocking-down activity entry is “Bad (5 or more insects were not knocked down or dead (ditto))” and the Lethal activity entry is recorded as “Bad (5 or more insects were not knocked down or dead (ditto))”. In data set [1] (concentration 1.0 %W/W), the Knocking-down activity result is “Mediocre (3 to 4 insects were not knocked down or dead (ditto))” and the Lethal activity entry is “Bad (5 or more insects were not knocked down or dead (ditto))”. Further, the Safety factor in data set [2] is listed as <35.

As to `Cc1c(F)c(F)c(COC(=O)[C@@H]2[C@H](C=C(Cl)Cl)C2(C)C)c(F)c1F` [Reference compound A, 4-methyl-2,3,5,6-tetrafluorobenzyl (1R)-cis-3-(2,2-dichlorovinyl)-2,2-dimethylcyclopropanecarboxylate], in data set [1] (concentration 0.5 %W/W), the Knocking-down activity result was “Bad (5 or more insects were not knocked down or dead (ditto))” and the Lethal activity entry is reported as “Bad (5 or more insects were not knocked down or dead (ditto))”. The molecule also had an LD50 with female adult houseflies of 2.8 mg/kg. In addition, the LD50 at 7 days in data set [3] was < 100 mg/kg. In data set [2], the Safety factor was <36.

As to `Cc1c(F)c(F)c(COC(=O)[C@@H]2[C@@H](C=C(Cl)Cl)C2(C)C)c(F)c1F` [Present compound, 4-methyl-2,3,5,6-tetrafluorobenzyl (1R)-trans-3-(2,2-dichlorovinyl)-2,2-dimethylcyclopropanecarboxylate], in data set [1] (concentration 0.5 %W/W), the Knocking-down activity entry is “Excellent” and the Lethal activity entry was “Good (1 to 2 insects were not knocked down or dead (ditto))”. Moreover, the LD50 with female adult houseflies worked out at 0.93 mg/kg. The LD50 at 7 days in data set [3] turned out to be 300 mg/kg. The Safety factor in data set [2] is given as 320.

In general, LD50 refers to the dose expected to kill half of the subjects tested.
